This passage reports Time, Activity and ED50 results from ChEMBL document CHEMBL3244122, “Symbiotic approach to drug design: antihypertensive beta-adrenergic blocking agents” (J Med Chem, 1979).

For one assay, the system named is Rattus norvegicus. Kind of assay: Antihypertensive activity in spontaneously hypertensive Wistar-Okamoto rat assessed as duration of action at 20 mg/kg, po. The class given is functional.
Conditions: not given
Turning to `CC(C)NCC(O)COc1cccc2ccccc12` (centres undefined) [PROPRANOLOL], the Time turned out to be 12 h.
As for `Cc1cc(C)c(C#N)c(OCC(O)CNC(C)(C)C)n1` (centres undefined), the Time is 8 h.
Consider `CC(C)(C)NCC(O)COc1ccc(-c2ncc(C(F)(F)F)[nH]2)cn1` (centres undefined), for which the Time was over 7 h.
Take `CC(C)(C)NCC(O)COc1cc(C#N)ccn1` (centres undefined): the Time was 4 h.
In the case of `Cc1c[nH]c(-c2ccc(OCC(O)CNC(C)(C)C)cc2)n1` (centres undefined), the Time is 8 h.
On the same count and under the same terms, for `CC(C)(C)NCC(O)COc1ncccc1C(F)(F)F` (centres undefined) the value was 18 h.

Another assay deals with Rattus norvegicus. In words: Antihypertensive activity in spontaneously hypertensive Wistar-Okamoto rat assessed as maximal fall in mean arterial pressure at 5 mg/kg, po.
Conditions: not given
The class given is functional, Artery.
Regarding `CC(C)NCC(O)COc1cccc2ccccc12` (centres undefined) [PROPRANOLOL], the Activity is recorded as 7 mmHg.
With `Cc1cc(C)c(C#N)c(OCC(O)CNC(C)(C)C)n1` (centres undefined), the Activity turned out to be 16 mmHg.
On the same count and under the same terms, for `CC(C)(C)NCC(O)COc1cc(C#N)ccn1` (centres undefined) the value was 30 mmHg; for `Cc1c[nH]c(-c2ccc(OCC(O)CNC(C)(C)C)cc2)n1` (centres undefined), 19 mmHg.

The subject of the next assay is Rattus norvegicus. In words: Antihypertensive activity in spontaneously hypertensive Wistar-Okamoto rat assessed as maximal fall in mean arterial pressure at 20 mg/kg, ip. The class given is functional, Artery. The settings on record: route intraperitoneal.
As to `CC(C)(C)NCC(O)COc1ccc(-c2ncc(C(F)(F)F)[nH]2)cn1` (centres undefined), the Activity was determined as 40 mmHg.

The next assay concerns Canis familiaris. In words: Vasodilatory activity in anesthetized dog assessed as increase in iliac blood flow […] measured after 2000 ug/kg, iv beta-adrenergic receptor blocker timolol administration. The class given is functional, Canis lupus familiaris, Artery.
Conditions: not given
Consider `Cc1cc(C)c(C#N)c(OCC(O)CNC(C)(C)C)n1` (centres undefined), for which the Activity amounted to 3 mL/min.
Consider `CC(C)(C)NCC(O)COc1ncccc1C(F)(F)F` (centres undefined), for which the Activity is 145 mL/min.

The subject of another assay is Canis familiaris. In words: In vivo beta-adrenergic receptor blockade in iv dosed anesthetized dog assessed as inhibition of isoproterenol-induced tachycardia. The assay is classed as functional. The settings on record: Canis lupus familiaris.
Usually ED50 stands for the midpoint of the dose-response relation. On to `CC(C)NCC(O)COc1cccc2ccccc12` (centres undefined) [PROPRANOLOL], for which the ED50 worked out at 0.051 mg/kg.
On to `Cc1cc(C)c(C#N)c(OCC(O)CNC(C)(C)C)n1` (centres undefined), for which the ED50 worked out at 0.0015 mg/kg.
Turning to `CC(C)(C)NCC(O)COc1ccc(-c2ncc(C(F)(F)F)[nH]2)cn1` (centres undefined), the ED50 was 0.0025 mg/kg.
Take `CC(C)(C)NCC(O)COc1cc(C#N)ccn1` (centres undefined): the median effective dose (ED50) came to 0.03 mg/kg.
For the molecule `CC(C)(C)NCC(O)COc1ncccc1C(F)(F)F` (centres undefined), the ED50 was under 0.001 mg/kg.

The next assay has as its system Canis familiaris. In words: In vivo beta-adrenergic receptor blockade in iv dosed anesthetized dog assessed as inhibition of isoproterenol-induced hypotension. The class given is functional. As to conditions: Canis lupus familiaris.
`CC(C)NCC(O)COc1cccc2ccccc12` (centres undefined) [PROPRANOLOL]: the ED50 worked out at 0.019 mg/kg.
On the same count and under the same terms, with `Cc1cc(C)c(C#N)c(OCC(O)CNC(C)(C)C)n1` (centres undefined) the figure was 0.0026 mg/kg; with `CC(C)(C)NCC(O)COc1ccc(-c2ncc(C(F)(F)F)[nH]2)cn1` (centres undefined), 0.058 mg/kg.
As for `CC(C)(C)NCC(O)COc1cc(C#N)ccn1` (centres undefined), the ED50 was over 0.03 mg/kg.
As to `CC(C)(C)NCC(O)COc1ncccc1C(F)(F)F` (centres undefined), the ED50 was under 0.001 mg/kg.

In the next assay the test system is Rattus norvegicus. Kind of assay: Antihypertensive activity in spontaneously hypertensive Wistar-Okamoto rat assessed as duration of action at 5 mg/kg, po. The class given is functional.
Conditions: not given
With `CC(C)NCC(O)COc1cccc2ccccc12` (centres undefined) [PROPRANOLOL], the Time was under 8 h.
As to `CC(C)(C)NCC(O)COc1cc(C#N)ccn1` (centres undefined), the Time is 2 h.
As for `Cc1c[nH]c(-c2ccc(OCC(O)CNC(C)(C)C)cc2)n1` (centres undefined), the Time was under 8 h.

The subject of the next assay is Canis familiaris. In words: Vasodilatory activity in anesthetized dog assessed as increase in iliac blood flow at 250 mg, ia measured after 800 ug/kg, iv beta-adrenergic receptor blocker timolol administration. The assay is classed as functional, Canis lupus familiaris, Artery.
Conditions: not given
For the molecule `CC(C)(C)NCC(O)COc1ncccc1C(F)(F)F` (centres undefined), the Activity was found to be 60 mL/min.

A further assay concerns Rattus norvegicus. Kind of assay: Antihypertensive activity in spontaneously hypertensive Wistar-Okamoto rat assessed as duration of action at 1.25 mg/kg, po. The assay is classed as functional.
Conditions: not given
Take `CC(C)NCC(O)COc1cccc2ccccc12` (centres undefined) [PROPRANOLOL]: the Time was found to be 8 h.
In the case of `Cc1c[nH]c(-c2ccc(OCC(O)CNC(C)(C)C)cc2)n1` (centres undefined), the Time was under 6 h.
As for `CC(C)(C)NCC(O)COc1ncccc1C(F)(F)F` (centres undefined), the Time came out at 4 h.

The subject of a further assay is Rattus norvegicus. Kind of assay: Antihypertensive activity in spontaneously hypertensive Wistar-Okamoto rat assessed as maximal fall in mean arterial pressure at 1.25 mg/kg, po.
Conditions: not given
The class given is functional, Artery.
In the case of `CC(C)NCC(O)COc1cccc2ccccc12` (centres undefined) [PROPRANOLOL], the Activity is reported as 12 mmHg.
For the molecule `CC(C)(C)NCC(O)COc1cc(C#N)ccn1` (centres undefined), the Activity was determined as 15 mmHg.
As to `Cc1c[nH]c(-c2ccc(OCC(O)CNC(C)(C)C)cc2)n1` (centres undefined), the Activity is reported as 24 mmHg.
With `CC(C)(C)NCC(O)COc1ncccc1C(F)(F)F` (centres undefined), the Activity was found to be 28 mmHg.

The next assay deals with Canis familiaris. Kind of assay: Vasodilatory activity in anesthetized dog assessed as increase in iliac blood flow at 64 mg, ia measured after 800 ug/kg, iv beta-adrenergic receptor blocker timolol administration. The class given is functional, Canis lupus familiaris, Artery.
Conditions: not given
Consider `CC(C)(C)NCC(O)COc1ncccc1C(F)(F)F` (centres undefined), for which the Activity is 41 mL/min.

In the next assay the test system is Rattus norvegicus. Kind of assay: Antihypertensive activity in spontaneously hypertensive Wistar-Okamoto rat assessed as maximal fall in mean arterial pressure at 0.312 mg/kg, po. The class given is functional, Artery.
Conditions: not given
For `CC(C)(C)NCC(O)COc1ncccc1C(F)(F)F` (centres undefined), the Activity was 15 mmHg.

A further assay has as its system Canis familiaris. Kind of assay: Vasodilatory activity in anesthetized dog assessed as increase in iliac blood flow […] measured after 800 ug/kg, iv beta-adrenergic receptor blocker timolol administration.
Conditions: not given
The class given is functional, Canis lupus familiaris, Artery.
As for `CC(C)(C)NCC(O)COc1ccc(-c2ncc(C(F)(F)F)[nH]2)cn1` (centres undefined), the Activity was 38 mL/min.
Regarding `CC(C)(C)NCC(O)COc1cc(C#N)ccn1` (centres undefined), the Activity was found to be 18 mL/min.

The subject of another assay is Canis familiaris. Kind of assay: Vasodilatory activity in anesthetized dog assessed as increase in iliac blood flow […] measured after 320 ug/kg, iv beta-adrenergic receptor blocker timolol administration. The assay is classed as functional, Canis lupus familiaris, Artery.
Conditions: not given
As to `Cc1c[nH]c(-c2ccc(OCC(O)CNC(C)(C)C)cc2)n1` (centres undefined), the Activity worked out at 33 mL/min.

The subject of another assay is Rattus norvegicus. Kind of assay: Antihypertensive activity in spontaneously hypertensive Wistar-Okamoto rat assessed as maximal fall in mean arterial pressure at 20 mg/kg, po. The class given is functional, Artery.
Conditions: not given
As for `CC(C)NCC(O)COc1cccc2ccccc12` (centres undefined) [PROPRANOLOL], the Activity is given as 14 mmHg.
`Cc1cc(C)c(C#N)c(OCC(O)CNC(C)(C)C)n1` (centres undefined): the Activity is reported as 21 mmHg.
As to `CC(C)(C)NCC(O)COc1cc(C#N)ccn1` (centres undefined), the Activity amounted to 55 mmHg.
As for `Cc1c[nH]c(-c2ccc(OCC(O)CNC(C)(C)C)cc2)n1` (centres undefined), the Activity came out at 41 mmHg.
The same measure, in the same setting: with `CC(C)(C)NCC(O)COc1ncccc1C(F)(F)F` (centres undefined) the figure was 36 mmHg.

The subject of another assay is Canis familiaris. Kind of assay: Vasodilatory activity in anesthetized dog assessed as increase in iliac blood flow […] ia. The assay is classed as functional, Canis lupus familiaris, Artery.
Conditions: not given
`Cc1cc(C)c(C#N)c(OCC(O)CNC(C)(C)C)n1` (centres undefined): the Activity was found to be 33 mL/min.
In the case of `CC(C)(C)NCC(O)COc1ccc(-c2ncc(C(F)(F)F)[nH]2)cn1` (centres undefined), the Activity was 103 mL/min.
As for `CC(C)(C)NCC(O)COc1cc(C#N)ccn1` (centres undefined), the Activity came to 35 mL/min.
Consider `Cc1c[nH]c(-c2ccc(OCC(O)CNC(C)(C)C)cc2)n1` (centres undefined), for which the Activity was 60 mL/min.
Consider `CC(C)(C)NCC(O)COc1ncccc1C(F)(F)F` (centres undefined), for which the Activity was 100 mL/min.
